Species on record: Rattus norvegicus
Assay: Open TG-GATES - Regimen: Single
Type: toxicity, organism-based, Sprague-Dawley
Parameters: regimen Single, gender Male, age 6 weeks
Details: in vivo, iv, route intravenous injection; for Bas / Eos / Fbg / Ht / Lym / MCHC / MCV / Mono / PT / Plat / RBC / Ret / WBC / APTT / Hb / MCH / Neu: tissue Blood; for KIDNEY_L / KIDNEY_R / KIDNEY_TOTAL: tissue Kidney; for LIVER: tissue Liver
[1] = 0 mg/kg, 3 h, dose level Control
[2] = 0 mg/kg, 3 h, tissue Plasma, dose level Control
[3] = 0 mg/kg, 6 h, dose level Control
[4] = 0 mg/kg, 6 h, tissue Plasma, dose level Control
[5] = 0 mg/kg, 9 h, dose level Control
[6] = 0 mg/kg, 9 h, tissue Plasma, dose level Control
[7] = 0 mg/kg, 24 h, dose level Control
[8] = 0 mg/kg, 24 h, tissue Plasma, dose level Control
[9] = 1 mg/kg, 3 h, dose level Middle
[10] = 1 mg/kg, 3 h, tissue Plasma, dose level Middle
[11] = 1 mg/kg, 6 h, dose level Middle
[12] = 1 mg/kg, 6 h, tissue Plasma, dose level Middle

Sequence CISPLATIN has a TERMINAL_BW [1] of 217.6 g, a Bas [1] of 0% and an Eos [1] of 1%. It also gave a Fbg [1] of 292.4 mg/dL, a Ht [1] of 40.6% and a Lym [1] of 82.4%. For the same sequence, the MCHC [1] was 32.6%, the MCV [1] was 65.7 fL and the Mono [1] was 2.2%. For the same sequence, the PT [1] was 15.3 s, the Plat [1] was 125.7 x10_4/uL and the RBC [1] was 617.8 x10_4/ul. It also gave a Ret [1] of 6.8%, a WBC [1] of 111 x10_2/uL and a KIDNEY_L [1] of 1 g. For the same sequence, the KIDNEY_R [1] was 1 g, the KIDNEY_TOTAL [1] was 1.9 g and the ALP [2] was 1441.2 IU/L. It also gave an ALT [2] of 48.4 IU/L, an AST [2] of 80.6 IU/L and a BUN [2] of 13.6 mg/dL. For the same sequence, the CRE [2] was 0.2 mg/dL, the Ca [2] was 11 mg/dL and the DBIL [2] was 0 mg/dL. It also gave an IP [2] of 8.7 mg/dL, a K [2] of 4.2 meq/L and an LDH [2] of 188.6 IU/L. It also gave a PL [2] of 126.6 mg/dL, an RALB [2] of 2.9 g/dL and a TBIL [2] of 0.02 mg/dL. For the same sequence, the TC [2] was 71 mg/dL, the TG [2] was 54.8 mg/dL and the TP [2] was 5.4 g/dL. It also gave a gamma-GTP [2] of 2 IU/L, a TERMINAL_BW [3] of 210.4 g and an APTT [3] of 22.8 s. For the same sequence, the Bas [3] was 0%, the Eos [3] was 1% and the Fbg [3] was 275.4 mg/dL. It also gave a Hb [3] of 13 g/dL, a Ht [3] of 39.7% and a Lym [3] of 83.4%. It also gave an MCH [3] of 21.1 pg, an MCHC [3] of 32.7% and an MCV [3] of 64.3 fL. The Mono [3] was 3%, the Plat [3] was 115.2 x10_4/uL and the RBC [3] was 617.6 x10_4/ul. For the same sequence, the Ret [3] was 6.5%, the WBC [3] was 152.3 x10_2/uL and the KIDNEY_L [3] was 0.9 g. The KIDNEY_R [3] was 1 g, the KIDNEY_TOTAL [3] was 1.9 g and the LIVER [3] was 9.2 g. The ALP [4] was 1766.6 IU/L, the ALT [4] was 44 IU/L and the AST [4] was 76.8 IU/L. For the same sequence, the BUN [4] was 12.6 mg/dL, the CRE [4] was 0.2 mg/dL and the DBIL [4] was 0 mg/dL. It also gave an IP [4] of 9.5 mg/dL, a K [4] of 4.5 meq/L and an LDH [4] of 165.8 IU/L. For the same sequence, the Na [4] was 139.2 meq/L, the PL [4] was 128.6 mg/dL and the RALB [4] was 2.8 g/dL. For the same sequence, the TBIL [4] was 0 mg/dL, the TC [4] was 67.2 mg/dL and the TG [4] was 81.6 mg/dL. For the same sequence, the TP [4] was 5.2 g/dL, the gamma-GTP [4] was 1.6 IU/L and the TERMINAL_BW [5] was 208.8 g. The APTT [5] was 24.1 s, the Bas [5] was 0% and the Eos [5] was 0.6%. It also gave a Fbg [5] of 257.6 mg/dL, a Hb [5] of 13 g/dL and a Ht [5] of 39.9%. For the same sequence, the Lym [5] was 79.8%, the MCHC [5] was 32.7% and the MCV [5] was 64 fL. The Mono [5] was 2.4%, the Neu [5] was 16.4% and the Plat [5] was 119.1 x10_4/uL. For the same sequence, the RBC [5] was 623 x10_4/ul, the Ret [5] was 5.8% and the WBC [5] was 90.6 x10_2/uL. It also gave a KIDNEY_L [5] of 0.9 g, a KIDNEY_R [5] of 1 g and a KIDNEY_TOTAL [5] of 1.9 g. For the same sequence, the LIVER [5] was 8.9 g, the ALP [6] was 1337.6 IU/L and the ALT [6] was 39.8 IU/L. It also gave an AST [6] of 74.2 IU/L, a BUN [6] of 12.8 mg/dL and a CRE [6] of 0.1 mg/dL. For the same sequence, the DBIL [6] was 0 mg/dL, the GLC [6] was 184.8 mg/dL and the K [6] was 4.2 meq/L. The LDH [6] was 139.8 IU/L, the Na [6] was 139.8 meq/L and the PL [6] was 130.2 mg/dL. For the same sequence, the RALB [6] was 2.9 g/dL, the TBIL [6] was 0.02 mg/dL and the TP [6] was 5.4 g/dL. The gamma-GTP [6] was 1.6 IU/L, the TERMINAL_BW [7] was 232.1 g and the APTT [7] was 22.3 s. It also gave a Bas [7] of 0%, an Eos [7] of 1% and a Fbg [7] of 282.6 mg/dL. For the same sequence, the Ht [7] was 40.2%, the Lym [7] was 81.2% and the MCH [7] was 21.1 pg. The MCV [7] was 65 fL, the Mono [7] was 2.8% and the Plat [7] was 123 x10_4/uL. It also gave an RBC [7] of 617.6 x10_4/ul, a Ret [7] of 6.3% and a WBC [7] of 84 x10_2/uL. The KIDNEY_L [7] was 1 g, the KIDNEY_R [7] was 1.1 g and the KIDNEY_TOTAL [7] was 2.1 g. The ALP [8] was 1431.4 IU/L, the ALT [8] was 47.4 IU/L and the AST [8] was 74.8 IU/L. The BUN [8] was 17.2 mg/dL, the CRE [8] was 0.2 mg/dL and the DBIL [8] was 0 mg/dL. The IP [8] was 7.7 mg/dL, the K [8] was 4.4 meq/L and the LDH [8] was 177.8 IU/L. It also gave a PL [8] of 150.4 mg/dL, an RALB [8] of 3 g/dL and a TBIL [8] of 0.014 mg/dL. For the same sequence, the TC [8] was 80.2 mg/dL, the TG [8] was 98.4 mg/dL and the TP [8] was 5.6 g/dL. It also gave a gamma-GTP [8] of 1.6 IU/L, a TERMINAL_BW [9] of 215.5 g and an APTT [9] of 22.6 s. The Bas [9] was 0%, the Eos [9] was 1% and the Fbg [9] was 275.8 mg/dL. It also gave a Hb [9] of 12.7 g/dL, a Ht [9] of 38.9% and a Lym [9] of 75%. For the same sequence, the MCH [9] was 21.1 pg, the MCHC [9] was 32.7% and the MCV [9] was 64.5 fL. The Mono [9] was 2.6%, the Plat [9] was 127.7 x10_4/uL and the RBC [9] was 602.2 x10_4/ul. The Ret [9] was 6.6%, the WBC [9] was 89.5 x10_2/uL and the KIDNEY_L [9] was 1 g. For the same sequence, the KIDNEY_R [9] was 1 g, the KIDNEY_TOTAL [9] was 2 g and the LIVER [9] was 10 g. The ALP [10] was 1623.4 IU/L, the ALT [10] was 38.8 IU/L and the BUN [10] was 13 mg/dL. The CRE [10] was 0.2 mg/dL, the DBIL [10] was 0 mg/dL and the GLC [10] was 175.4 mg/dL. It also gave an IP [10] of 8.9 mg/dL, a K [10] of 4.2 meq/L and an LDH [10] of 152.2 IU/L. For the same sequence, the Na [10] was 139.6 meq/L, the PL [10] was 132.4 mg/dL and the RALB [10] was 2.8 g/dL. For the same sequence, the TBIL [10] was 0.014 mg/dL, the TC [10] was 75 mg/dL and the TG [10] was 80.6 mg/dL. The TP [10] was 5.2 g/dL, the gamma-GTP [10] was 1.4 IU/L and the TERMINAL_BW [11] was 216 g. The APTT [11] was 22.5 s, the Bas [11] was 0% and the Eos [11] was 1%. The Fbg [11] was 275 mg/dL, the Hb [11] was 13 g/dL and the Ht [11] was 39.9%. For the same sequence, the Lym [11] was 77%, the MCHC [11] was 32.6% and the MCV [11] was 63.4 fL. The Mono [11] was 3%, the Neu [11] was 17.8% and the PT [11] was 15.4 s. The Plat [11] was 128.4 x10_4/uL, the RBC [11] was 629.4 x10_4/ul and the Ret [11] was 6.1%. The WBC [11] was 106.4 x10_2/uL, the KIDNEY_L [11] was 1 g and the KIDNEY_R [11] was 1 g. The KIDNEY_TOTAL [11] was 2 g, the LIVER [11] was 9.4 g and the ALP [12] was 1530.2 IU/L. The ALT [12] was 42.8 IU/L, the AST [12] was 75.8 IU/L and the CRE [12] was 0.1 mg/dL. The DBIL [12] was 0 mg/dL, the IP [12] was 9.6 mg/dL and the K [12] was 4.4 meq/L. For the same sequence, the LDH [12] was 159.6 IU/L, the Na [12] was 138.6 meq/L and the PL [12] was 135.6 mg/dL. The RALB [12] was 2.9 g/dL, the TBIL [12] was 0 mg/dL and the TC [12] was 73.2 mg/dL. The TG [12] was 92.2 mg/dL, the TP [12] was 5.4 g/dL and the gamma-GTP [12] was 2 IU/L.

From ChEMBL document CHEMBL3885861, “Open TG-GATES”
